Measured values published in patent US12427106B2, “Elastic sheet with function of re-activating endometrial basal layer in uterine cavity and forming method thereof” (YIPURUN (SHANGHAI) BIOTECHNOLOGY CO., LTD., priority 2018, dated 2025).

Legend:
[1] = cited from earlier work
[2] = blood concentration in vivo of subjects after implantation or oral dose
Method: The blood concentrations of subjects were measured per 2 weeks, and the trend in vivo matched the release in vitro despite the few of data points.
It can be seen from the FIG. that the blood concentration in vivo is consistent with the release in vitro trend, thus the treatment in vivo can be adjusted by the release in vitro.
The following table gives a comparison of a relationship between the oral dose and the blood concentration in vivo and another relationship between the released drug of the elastic sheet and the blood concentration in vivo: […]

[3] = blood concentration in vivo of New Zealand rabbits after implantation or oral dose
Method: New Zealand rabbits within 10 weeks after the implantation. […] The blood concentrations of subjects were measured per 2 weeks, and the trend in vivo matched the release in vitro despite the few of data points. […] New Zealand rabbits within 10 weeks after the implantation. […] The blood concentrations of subjects were measured per 2 weeks, and the trend in vivo matched the release in vitro despite the few of data points. […] It can be seen from the FIG. that the blood concentration in vivo is consistent with the release in vitro trend, thus the treatment in vivo can be adjusted by the release in vitro. The following table gives a comparison of a relationship between the oral dose and the blood concentration in vivo and another relationship between the released drug of the elastic sheet and the blood concentration in vivo: Following table 10 gives a comparison of a relationship between the oral dose and the blood concentration in vivo and another relationship between the released drug of the elastic sheet and the blood concentration in vivo: […]

Blood concentration ([2]; Oral dose 1000 μg/d) [nM] | Blood concentration ([2]; Oral dose 2000 μg/d) [nM] | Blood concentration ([2]; Oral dose 3000 μg/d) [nM] | Blood concentration ([2]; Oral dose 4000 μg/d) [nM] | Blood concentration ([3]; Oral dose 1000 μg/d) [nM] | Blood concentration ([3]; Oral dose 2000 μg/d) [nM] | Blood concentration ([3]; Oral dose 3000 μg/d) [nM] | Compound | increase of the serum concentration of estradiol (E2) ([1]; oral administration of 4 mg (2 mg bid)) [pg/mL] | absorption effect of vaginal administration relative to oral administration ([1]; vaginal versus oral) [times]
– | – | – | – | – | – | – | CCCCC(=O)O[C@H]1CC[C@H]2[C@@H]3CCc4cc(O)ccc4[C@H]3CC[C@]12C [estradiol valerate] | 211.89 ± 57.40 | 4 to 8
0.1112 | 0.2558 | 0.4985 | 0.9893 | 0.1112 | 0.2558 | 0.4985 | C[C@]12CC[C@@H]3c4ccc(O)cc4CC[C@H]3[C@@H]1CC[C@@H]2O [estradiol] | – | –
